Two compounds from patent publication EP4635958A1, “PYRIMIDINE-CONTAINING POLYCYCLIC DERIVATIVE INHIBITOR, AND PREPARATION METHOD THEREFOR AND USE THEREOF” (Shanghai Hansoh Biomedical Co., Ltd., priority 2022, dated 2024) can be followed below.

Read-outs that look alike come from different tables or passages of the source.

Data set [1] concerns human pancreatic cancer cell line (HPAC). The experiment in a line: Antitumor efficacy in mouse transplanted tumor model of human pancreatic cancer cell line (HPAC). It counts as in vivo, mice (BALB/c nude). Conditions: Table 11, HPAC xenograft, 100mpk, PO*BID; for Tumor volume (mm^3, Mean ± SD) Day 0: Day 0 (baseline). The source says: 8-10 week old female conventional immunodeficient mice (BALB/c nude) with a body weight of 18 g-22 g were used as experimental animals, and a transplanted tumor model of human pancreatic cancer cell line (HPAC) was used to conduct in vivo efficacy experiments to test the anti-tumor results of the example compounds after gavage administration.
The example compounds of the present invention, made in house.
A certain amount of the example compound was weighed, and an appropriate amount of 10% vehicle (Solutol HS15) was added. The mixture was stirred on a magnetic stirrer for 0.5 h to formulate a homogeneous suspension at the desired concentration.
Human pancreatic cancer cell line (HPAC) was derived from COBIOER BIOSCIENCES CO., LTD, cultured on DMEM/F12 medium (Gibco, 11330-032) supplemented with 10% fetal calf serum (Gibco, 10091-148), 1×Insulin (51500-056, Gibco) and 10 ng/ml of EGF (PHG0311, Gibco) and observed under a microscope (Thermo Fisher, 311). The cells were routinely passaged when the cells reached 80%-90% confluence in the culture flask. The passaged cells were cultured in a 37°C, 5% CO2 incubator (Thermo Fisher, 311).
Under aseptic conditions, human pancreatic cancer cells (HPAC) in the logarithmic growth phase were harvested using 0.25% trypsin-EDTA (Gibco, 25200-056), washed and resuspended with phosphate buffer. The cell suspension was mixed with Matrigel (Corning, 356234) at a 1 : 1 ratio (v/v) and implanted subcutaneously into the right anterior dorsal region of immunodeficient mice (BALB/c nude). Each mouse was inoculated with 3*10^6 cells in a volume of 100 microliters (µL). After inoculation, when the tumor volume reached 100-200 mm^3, the mice would be evenly randomized into 5 groups based on the tumor size, with 5 mice per group, for in vivo efficacy experiments. The negative control group was the vehicle group.
Mode of administration: The example compounds were administered orally.
Twice a week, the long and short diameters of the tumor were measured using a vernier caliper, and the tumor volume (mm^3) was calculated using the formula: V = 0.5*D*d*d, where D and d are the long and short diameters of the tumor, respectively. The anti-tumor efficacy was determined by dividing the average increase in tumor volume of compound-treated animals by the average increase in tumor volume of untreated animals. The calculation formula for tumor inhibition rate was: When there is no tumor regression, TGI(%) = 100-[(Vt-V0) administration group/(Vt-V0) vehicle control group]*100%. When tumor regression occurs, TGI(%) = [1-(Vt-V0) administration group/V0 vehicle control group]*100%. All animals were euthanized after the experiment.
(In general: A xenograft is tissue or cells of one species grown in another, often human tumour cells in immunodeficient mice.)

Data set [2] is described as follows: Pharmacokinetic determination in rats (IV and PO, plasma, LCMS/MS). It counts as in vivo, SD rats. Conditions: male SD rats; for F: PO 30 mg/kg vs IV 1 mg/kg; for AUC(0-inf): read-out: AUCo-∞; for half-life: read-out: T1/2 (converted). In a few lines: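 Male SD rats (3/group), fasted overnight, dosed PO at 30 mg/kg in 10% Captisol/50 mM citrate pH 5.0 or IV at 1 mg/kg in 5% DMSO/10% Solutol HS15/85% PBS. Jugular plasma (EDTA-2K) sampled predose to 24 h; analysed by LCMS/MS.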

[3] abbreviates: rat, in vivo, IV, 1 mg/kg, overnight fasting, plasma.
Where [4] appears, read: rat, in vivo, PO, 30 mg/kg, overnight fasting, plasma.
The mark [5] stands for this setting: IV, 1 mg/kg, overnight fasting, plasma.
The mark [6] stands for this setting: PO, 30 mg/kg, overnight fasting, plasma.

Take `C#Cc1c(F)ccc2cc(O)cc(-c3nc4c5c(nc(OCC6(CN7CCC(=CF)CC7)CC6)nc5c3F)N3C[C@H]5CC[C@H](N5)[C@H]3[C@H](C)O4)c12` [Example 129, 5-ethynyl-6-fluoro-4-((5S,5aS,6S,9R)-1-fluoro-12-((1-((4-(fluoromethylene)piperidin-1-yl)methyl)cyclopropyl)methoxy)-5-methyl-5a,6,7,8,9,10-hexahydro-5H-4-oxa-3,10a,11,13,14-pentaaza-6,9-methylnaphtho[1,8-ab]hept-2-yl)naphthalen-2-ol]: in data set [1], the “Tumor volume (mm^3, Mean ± SD) Day 0” value worked out at 209 mm^3; the “TGI(%) Day 21” value was found to be 97.63%; the “Tumor volume (mm^3, Mean ± SD) Day 21” value came to 231 mm^3; the “ΔT/ΔC(%) Day 21” value turned out to be 20.27%. In data set [2], this compound had an F of 5.4%. In data set [2] (setting [3]), the AUC(0-inf) amounted to 578 ng·h/mL and the half-life is 11.7 h. The C0 in data set [2] (rat, in vivo, IV, 1 mg/kg, overnight fasting, plasma, read-out: C0) was 2120 ng/mL. Also, the clearance in data set [2] (rat, in vivo, IV, 1 mg/kg, overnight fasting, plasma, read-out: CL) amounted to 28.8 mL/min/kg. Moreover, in data set [2] (setting [4]), the AUC(0-inf) was 938 ng·h/mL and the half-life was 9.6 h. The Cmax – broadly, the highest concentration seen after dosing – in data set [2] (rat, in vivo, PO, 30 mg/kg, overnight fasting, plasma, read-out: Cmax) is 103 ng/mL. Also, the time of peak concentration (Tmax) (usually the time from dosing to the highest level) in data set [2] (rat, in vivo, PO, 30 mg/kg, overnight fasting, plasma, read-out: Tmax) was determined as 1 h.
Take “4-((5S,5aS,6R,9S)-12-((1-((((R)-4-(difluoromethylene)-2-methylpiperidin-1-yl)methyl)cyclopropyl)methoxy)-1-fluoro-5-(methyl-d3)-5a,6,7,8,9,10-hexahydro-5H-4-oxa-3,10a,11,13,14-pentaaza-6,9-methylnaphtho[1,8-ab]hept-2-yl)-5-ethynyl-6-fluoronaphthalen-2-ol [Example 162]”: in data set [1], the “Tumor volume (mm^3, Mean ± SD) Day 0” value turned out to be 210 mm^3; the “TGI(%) Day 21” value came out at 126.15%; the “Tumor volume (mm^3, Mean ± SD) Day 21” value amounted to 155 mm^3; the “ΔT/ΔC(%) Day 21” value worked out at 13.54%. Besides, in data set [2] (setting [5]), the “AUCo-∞” value is 514 ng·h/mL, the C0 is on record as 438 ng/mL, the CL is given as 32.4 mL/min/kg and the T1/2 was determined as 10.8 h. In data set [2], this compound returned an F of 10.3%. Besides, in data set [2] (setting [6]), the “AUCo-∞” value stood at 1591 ng·h/mL, the Cmax turned out to be 89 ng/mL, the T1/2 worked out at 10.5 h and the Tmax came to 4.0 h.
